Earlier results as cited in patent US10682361B2, “Sustained release bimatoprost, bimatoprost analogs, prostamides and prostaglandins for fat reduction” (ALLERGAN, INC., priority 2013, dated 2020).

How the values were obtained:
[1] = system: adipocytes; details: topical administration
[2] = system: fat; details: topical administration

CCNC(=O)CCC/C=C\C[C@@H]1[C@@H](/C=C/[C@@H](O)CCc2ccccc2)[C@H](O)C[C@@H]1O [bimatoprost]
effect on adipocytes in animal models [1]: effectively prevent apidocyte formation and maturation and to atrophy adipocytes | clinical fat reduction [2]: clinical evidence of fat reduction
